Experimental data taken from patent publication US9745320B2, “Five-and-six-membered heterocyclic compound, and preparation method, pharmaceutical composition and use thereof” (SHANGHAI CHEMEXPLORER CO., LTD., priority 2013, dated 2017).

Legend:
Format in all cases: biochemical
JAK1 = JAK1 (Homo sapiens, UniProt P23458); assay: JAK 1 enzymatic inhibitory activity IC50 assay (Caliper conversion rate); conditions: Km ATP, 28° C., 1 hour
Protocol: (§1) Biological effect: intracytoplasmic JAK 1,2,3 enzymatic inhibitory activity IC50 assay
(§2) JAK1 buffer solution: 25 mM HEPES, pH 7.5, 0.01% Brij-35, 0.01 M Triton. JAK2,3 buffer solution: 50 mM HEPES, pH 7.5, 0.0015% Brij-35.
(§3) 2. Compound was formulated in 100% DMSO in a concentration gradient, deposited to a 384-well plate with a final concentration of 2% of DMSO.
(§4) 3. JAK2,3 enzymes were diluted to having an optimum concentration with the following buffer: 50 mM HEPES, pH 7.5, 0.0015% Brij-35, 2 mM DTT. JAK1 enzyme was diluted to having an optimum concentration with the following buffer: 25 mM HEPES, pH 7.5, 0.01% Brij-35, 2 mM DTT, 0.01M Triton. Then they were transferred to a 384-well plate and incubated with the compound for a certain time.
(§5) 4. JAK2,3 substrate was diluted to having an optimum concentration with the following buffer: 50 mM HEPES, pH 7.5, 0.0015% Brij-35, 10 mM MgCl2, Km adenosine triphosphate. JAK1 substrate was diluted to having an optimum concentration with the following buffer: 25 mM HEPES, pH 7.5, 0.01% Brij-35, 10 mM MgCl2, 0.01 M Triton. Km adenosine triphosphate was added into 384-well plates to initiate reactions, and the reaction were carried out at 28° C. for 1 hour.
(§6) 5. Read the conversion rate by Caliper Reader, and the inhibition rate are calculated according to the average of two tests.

JAK2 = JAK2 (Homo sapiens, UniProt O60674); assay: JAK 2 enzymatic inhibitory activity IC50 assay (Caliper conversion rate); conditions: Km ATP, 28° C., 1 hour
Protocol: as §1, §2, §3, §4, §5, §6

JAK3 = target: T1, JAK3 (Homo sapiens, UniProt P52333); assay: JAK 3 enzymatic inhibitory activity IC50 assay (Caliper conversion rate); conditions: Km ATP, 28° C., 1 hour; read-out: JAK 3 enzymatic inhibitory activity IC50
T1 sequence (P52333 1-1124): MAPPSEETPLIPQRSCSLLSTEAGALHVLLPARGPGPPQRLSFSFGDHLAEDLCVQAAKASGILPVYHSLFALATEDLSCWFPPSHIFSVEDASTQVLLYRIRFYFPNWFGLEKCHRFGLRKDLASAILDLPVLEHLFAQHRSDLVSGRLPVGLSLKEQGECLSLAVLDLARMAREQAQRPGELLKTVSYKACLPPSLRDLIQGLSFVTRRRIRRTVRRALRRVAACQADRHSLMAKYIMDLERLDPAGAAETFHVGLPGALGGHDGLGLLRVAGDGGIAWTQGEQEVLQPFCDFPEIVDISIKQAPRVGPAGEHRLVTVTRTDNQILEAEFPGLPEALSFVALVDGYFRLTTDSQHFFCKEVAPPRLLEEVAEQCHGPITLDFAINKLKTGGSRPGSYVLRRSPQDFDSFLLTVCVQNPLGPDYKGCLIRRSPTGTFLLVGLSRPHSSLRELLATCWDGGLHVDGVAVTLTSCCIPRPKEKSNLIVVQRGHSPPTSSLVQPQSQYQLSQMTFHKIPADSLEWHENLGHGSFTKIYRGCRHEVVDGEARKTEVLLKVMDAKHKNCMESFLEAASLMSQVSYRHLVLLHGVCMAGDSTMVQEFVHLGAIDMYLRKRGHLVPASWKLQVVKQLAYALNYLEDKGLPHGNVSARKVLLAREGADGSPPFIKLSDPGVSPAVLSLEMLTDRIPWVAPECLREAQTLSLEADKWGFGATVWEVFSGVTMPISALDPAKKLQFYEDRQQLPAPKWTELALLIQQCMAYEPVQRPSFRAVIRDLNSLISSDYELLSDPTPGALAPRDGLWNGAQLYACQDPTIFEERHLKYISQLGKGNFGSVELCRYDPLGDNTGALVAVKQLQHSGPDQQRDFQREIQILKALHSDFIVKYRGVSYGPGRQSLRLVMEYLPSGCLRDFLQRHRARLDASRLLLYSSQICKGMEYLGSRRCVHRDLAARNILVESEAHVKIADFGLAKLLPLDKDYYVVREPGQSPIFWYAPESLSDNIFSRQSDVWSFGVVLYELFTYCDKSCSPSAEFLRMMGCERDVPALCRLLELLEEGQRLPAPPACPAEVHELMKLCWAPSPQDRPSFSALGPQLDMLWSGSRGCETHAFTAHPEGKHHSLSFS
Protocol: as §1, §2, §3
as §4, with “time. […]” for “time.”
as §6

JAK2, sequence (O60674 whole entry, species assumed): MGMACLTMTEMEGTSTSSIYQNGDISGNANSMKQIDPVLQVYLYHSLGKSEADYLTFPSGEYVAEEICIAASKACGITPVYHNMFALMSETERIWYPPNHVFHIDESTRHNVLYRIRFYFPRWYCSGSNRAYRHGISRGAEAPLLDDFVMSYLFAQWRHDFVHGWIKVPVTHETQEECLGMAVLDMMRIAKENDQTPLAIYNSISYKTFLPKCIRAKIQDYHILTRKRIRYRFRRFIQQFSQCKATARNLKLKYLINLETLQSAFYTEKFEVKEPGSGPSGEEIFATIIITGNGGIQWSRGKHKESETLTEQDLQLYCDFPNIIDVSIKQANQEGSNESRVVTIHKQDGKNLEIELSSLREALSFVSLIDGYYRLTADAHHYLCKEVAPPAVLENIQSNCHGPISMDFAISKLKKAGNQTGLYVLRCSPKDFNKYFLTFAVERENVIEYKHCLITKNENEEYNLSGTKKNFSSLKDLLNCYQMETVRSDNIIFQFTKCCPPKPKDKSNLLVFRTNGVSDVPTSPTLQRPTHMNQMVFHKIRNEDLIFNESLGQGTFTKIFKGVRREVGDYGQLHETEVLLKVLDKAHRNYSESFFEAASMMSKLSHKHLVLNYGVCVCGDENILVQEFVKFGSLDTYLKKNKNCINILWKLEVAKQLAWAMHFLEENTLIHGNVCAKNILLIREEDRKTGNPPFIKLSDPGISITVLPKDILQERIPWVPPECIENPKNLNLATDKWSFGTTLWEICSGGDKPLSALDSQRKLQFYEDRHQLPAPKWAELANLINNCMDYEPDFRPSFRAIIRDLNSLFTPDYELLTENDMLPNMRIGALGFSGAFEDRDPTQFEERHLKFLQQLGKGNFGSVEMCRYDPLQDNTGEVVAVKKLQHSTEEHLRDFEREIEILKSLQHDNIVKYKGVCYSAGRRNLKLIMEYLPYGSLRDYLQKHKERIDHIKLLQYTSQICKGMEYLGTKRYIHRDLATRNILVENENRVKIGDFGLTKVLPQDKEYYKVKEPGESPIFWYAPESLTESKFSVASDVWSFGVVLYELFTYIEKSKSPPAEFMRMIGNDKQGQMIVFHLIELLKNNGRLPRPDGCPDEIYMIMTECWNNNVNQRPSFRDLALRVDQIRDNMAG
JAK1, sequence (P23458 whole entry, species assumed): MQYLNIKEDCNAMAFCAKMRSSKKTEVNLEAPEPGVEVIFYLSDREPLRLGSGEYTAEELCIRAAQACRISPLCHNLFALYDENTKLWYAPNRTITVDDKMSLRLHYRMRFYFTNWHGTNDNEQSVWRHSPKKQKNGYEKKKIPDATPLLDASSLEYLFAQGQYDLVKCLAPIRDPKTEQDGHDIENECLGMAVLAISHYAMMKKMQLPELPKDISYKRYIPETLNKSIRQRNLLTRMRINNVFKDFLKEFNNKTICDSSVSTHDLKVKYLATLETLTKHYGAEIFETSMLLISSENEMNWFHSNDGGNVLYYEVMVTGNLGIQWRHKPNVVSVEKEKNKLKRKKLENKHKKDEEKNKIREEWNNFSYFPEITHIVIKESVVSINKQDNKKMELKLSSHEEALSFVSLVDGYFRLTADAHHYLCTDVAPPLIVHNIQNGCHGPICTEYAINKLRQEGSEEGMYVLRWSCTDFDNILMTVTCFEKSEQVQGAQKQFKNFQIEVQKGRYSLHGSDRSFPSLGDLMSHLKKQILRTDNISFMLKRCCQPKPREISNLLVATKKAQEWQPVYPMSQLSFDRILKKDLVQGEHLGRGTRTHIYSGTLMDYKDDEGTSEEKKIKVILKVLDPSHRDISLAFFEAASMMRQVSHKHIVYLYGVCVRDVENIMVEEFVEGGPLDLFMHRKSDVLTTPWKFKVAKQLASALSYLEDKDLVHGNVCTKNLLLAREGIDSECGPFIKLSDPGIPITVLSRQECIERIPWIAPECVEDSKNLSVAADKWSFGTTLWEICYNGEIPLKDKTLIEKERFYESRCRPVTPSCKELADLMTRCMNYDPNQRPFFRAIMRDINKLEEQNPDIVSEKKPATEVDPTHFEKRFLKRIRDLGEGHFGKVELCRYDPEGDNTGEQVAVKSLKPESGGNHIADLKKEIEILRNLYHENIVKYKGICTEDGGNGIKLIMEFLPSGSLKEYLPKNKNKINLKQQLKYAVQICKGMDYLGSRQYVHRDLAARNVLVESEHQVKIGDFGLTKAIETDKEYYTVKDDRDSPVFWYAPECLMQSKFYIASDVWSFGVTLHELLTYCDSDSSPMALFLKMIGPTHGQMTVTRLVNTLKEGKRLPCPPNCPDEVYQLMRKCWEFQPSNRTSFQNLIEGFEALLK

| IC50 (JAK1) | IC50 (JAK2) | IC50 (JAK3) | Structure (SMILES) |
| --- | --- | --- | --- |
| < 50 nM | < 50 nM | < 50 nM | CCS(=O)(=O)N1CC(CC#N)(n2cc(-c3nc(Nc4cnn(CCCC(=O)N(C)C)c4)nc4ccsc34)cn2)C1 [Compound T-37, 4-(4-((4-(1-(3-(Cyanomethyl)-1-(ethylsulfonyl)azetidin-3-yl)-1H-pyrazol-4-yl)thieno[3,2-d]pyrimidin-2-yl)amino)-1H-pyrazol-1-yl)-N,N-dimethylbutanamide] |
| < 50 nM | < 50 nM | 50 to 500 nM | CCS(=O)(=O)N1CC(CC#N)(n2cc(-c3nc(Nc4ccc(N5CCOCC5)cc4)nc4ccsc34)cn2)C1 [Compound T-07, 2-(1-(Ethylsulfonyl)-3-(4-(2-((4-morpholinophenyl)amino)thieno[3,2-d]pyrimidin-4-yl)-1H-pyrazol-1-yl)azetidin-3-yl)acetonitrile] |
| 50 to 500 nM | < 50 nM | > 1000 nM | CCS(=O)(=O)N1CC(CC#N)(n2cc(-c3nc(Nc4ccc(-n5cccn5)cc4)nc4ccsc34)cn2)C1 [Compound T-11, 2-(3-(4-(2-((4-(1H-Pyrazol-1-yl)phenyl)amino)thieno[3,2-d]pyrimidin-4-yl)-1H-pyrazol-1-yl)-1-(ethylsulfonyl)azetidin-3-yl)acetonitrile] |
| < 50 nM | < 50 nM | < 50 nM | C[C@H](CO)n1cc(Nc2nc(-c3cnn(C4(CC#N)CN(S(C)(=O)=O)C4)c3)c3sccc3n2)cn1 [Compound T-84, (R)-2-(3-(4-(2-((1-(1-Hydroxypropan-2-yl)-1H-pyrazol-4-yl)amino)thieno[3,2-d]pyrimidin-4-yl)-1H-pyrazol-1-yl)-1-(methylsulfonyl)azetidin-3-yl)acetonitrile] |
| < 50 nM | < 50 nM | 50 to 500 nM | CCS(=O)(=O)N1CC(CC#N)(n2cc(-c3nc(Nc4ccc(-n5cncn5)cc4)nc4ccsc34)cn2)C1 [Compound T-10, 2-(3-(4-(2-((4-(1H-1,2,4-Triazol-1-yl)phenyl)amino)thieno[3,2-d]pyrimidin-4-yl)-1H-pyrazol-1-yl)-1-(ethylsulfonyl)azetidin-3-yl)acetonitrile] |
| 50 to 500 nM | < 50 nM | 50 to 500 nM | C[C@@H](O)Cn1cc(Nc2nc(-c3cnn(C4(CC#N)COC4)c3)c3sccc3n2)cn1 [Compound T-80, (R)-2-(3-(4-(2-((1-(2-Hydroxypropyl)-1H-pyrazol-4-yl)amino)thieno[3,2-d]pyrimidin-4-yl)-1H-pyrazol-1-yl)oxetan-3-yl)acetonitrile] |
| 50 to 500 nM | < 50 nM | 50 to 500 nM | Cn1cc(Nc2nc(-c3cnn(C4(CC#N)CCOCC4)c3)c3sccc3n2)cn1 [Compound T-44, 2-(4-(4-(2-((1-Methyl-1H-pyrazol-4-yl)amino)thieno[3,2-d]pyrimidin-4-yl)-1H-pyrazol-1-yl)tetrahydro-2H-pyran-4-yl)acetonitrile] |
| > 1000 nM | > 1000 nM | > 1000 nM | CC(C)(C)NS(=O)(=O)c1ccc(-c2nc(Nc3ccc(N4CCOCC4)cc3)nc3ccsc23)cc1 [Compound T-17, N-(Tert-butyl)-4-(2-((4-morpholinophenyl)amino)thieno[3,2-d]pyrimidin-4-yl)benzenesulfonamide] |
| 50 to 500 nM | < 50 nM | 50 to 500 nM | C[C@H](O)Cn1cc(Nc2nc(-c3cnn(C4(CC#N)COC4)c3)c3sccc3n2)cn1 [Compound T-81, (S)-2-(3-(4-(2-((1-(2-Hydroxypropyl)-1H-pyrazol-4-yl)amino)thieno[3,2-d]pyrimidin-4-yl)-1H-pyrazol-1-yl)oxetan-3-yl)acetonitrile] |
| < 50 nM | < 50 nM | < 50 nM | CC(C)(O)Cn1cc(Nc2nc(-c3cnn(C4(CC#N)CN(S(C)(=O)=O)C4)c3)c3sccc3n2)cn1 [Compound T-78, 2-(3-(4-(2-((1-(2-Hydroxy-2-methylpropyl)-1H-pyrazol-4-yl)amino)thieno[3,2-d]pyrimidin-4-yl)-1H-pyrazol-1-yl)-1-(methylsulfonyl)azetidin-3-yl)acetonitrile] |
| < 50 nM | < 50 nM | < 50 nM | CC(C)(CO)n1cc(Nc2nc(-c3cnn(C4(CC#N)CN(S(C)(=O)=O)C4)c3)c3sccc3n2)cn1 [Compound T-79, 2-(3-(4-(2-((1-(1-Hydroxy-2-methylpropan-2-yl)-1H-pyrazol-4-yl)amino)thieno[3,2-d]pyrimidin-4-yl)-1H-pyrazol-1-yl)-1-(methylsulfonyl)azetidin-3-yl)acetonitrile] |
| < 50 nM | < 50 nM | < 50 nM | C[C@@H](O)Cn1cc(Nc2nc(-c3cnn(C4(CC#N)CN(S(C)(=O)=O)C4)c3)c3sccc3n2)cn1 [Compound T-86, (R)-2-(3-(4-(2-((1-(2-Hydroxypropyl)-1H-pyrazol-4-yl)amino)thieno[3,2-d]pyrimidin-4-yl)-1H-pyrazol-1-yl)-1-(methylsulfonyl)azetidin-3-yl)acetonitrile] |
| 50 to 500 nM | < 50 nM | 50 to 500 nM | CCS(=O)(=O)N1CC(CC#N)(n2cc(-c3nc(Nc4ccncc4)nc4ccsc34)cn2)C1 [Compound T-21, 2-(1-(Ethylsulfonyl)-3-(4-(2-(pyridin-4-ylamino)thieno[3,2-d]pyrimidin-4-yl)-1H-pyrazol-1-yl)azetidin-3-yl)acetonitrile] |
| 50 to 500 nM | < 50 nM | < 50 nM | CCS(=O)(=O)N1CC(CC#N)(n2cc(-c3nc(Nc4cnn(C5COC5)c4)nc4ccsc34)cn2)C1 [Compound T-39, 2-(1-(Ethylsulfonyl)-3-(4-(2-((1-(oxetan-3-yl)-1H-pyrazol-4-yl)amino)thieno[3,2-d]pyrimidin-4-yl)-1H-pyrazol-1-yl)azetidin-3-yl)acetonitrile] |
| < 50 nM | < 50 nM | 50 to 500 nM | CCS(=O)(=O)N1CC(CC#N)(n2cc(-c3nc(Nc4ccc5[nH]cnc5c4)nc4ccsc34)cn2)C1 [Compound T-58, 2-(3-(4-(2-((1H-Benzo[d]imidazol-5-yl)amino)thieno[3,2-d]pyrimidin-4-yl)-1H-pyrazol-1-yl)-1-(ethylsulfonyl)azetidin-3-yl)acetonitrile] |
| < 50 nM | < 50 nM | < 50 nM | CCS(=O)(=O)N1CC(CC#N)(n2cc(-c3nc(Nc4cnn(C5CCN(C)CC5)c4)nc4ccsc34)cn2)C1 [Compound T-64, 2-(1-(Ethylsulfonyl)-3-(4-(2-((1-(1-methylpiperidin-4-yl)-1H-pyrazol-4-yl)amino)thieno[3,2-d]pyrimidin-4-yl)-1H-pyrazol-1-yl)azetidin-3-yl)acetonitrile] |
| > 1000 nM | > 1000 nM | > 1000 nM | CCS(=O)(=O)N1CC(CC#N)(n2cc(-c3nc(NC4CC4)nc4ccsc34)cn2)C1 [Compound T-28, 2-(3-(4-(2-(Cyclopropylamino)thieno[3,2-d]pyrimidin-4-yl)-1H-pyrazol-1-yl)-1-(ethylsulfonyl)azetidin-3-yl)acetonitrile] |
